In patent US20220401514A1, “ANTIMICROBIAL, BACTERIOPHAGE-DERIVED POLYPEPTIDES AND THEIR USE AGAINST GRAM-NEGATIVE AND ACID-FAST BACTERIA” (CONTRAFECT CORPORATION, priority 2019, published 2022):
Like-named read-outs stand apart in the source and are kept apart here.

Experiments:
[1] = tested on: A. baumannii strain BAA-747 persister cells; experiment: Activity against persister cells, A. baumannii; type: cell-based, Acinetobacter baumannii; conditions: A. baumannii BAA-747 persister cells
[2] = tested on: P. aeruginosa strain PA20 persister cells; experiment: Activity against persister cells, P. aeruginosa; type: cell-based, Pseudomonas aeruginosa; conditions: P. aeruginosa PA20 persister cells
[3] = Stability assessment in 100% CAA; type: in vitro ADME; design: unit not given beside the values
Protocol: Stability was assessed after incubation in 100% human serum at 37° C. after 10 minutes, 1 hour, and 2 hours.
Stability assessment was further conducted in 100% CAA and rabbit serum using the same methodology discussed above.

Klebsiella pneumoniae [4] = type: cell-based
Protocol: (§1) Determination of Minimal Inhibitory Concentrations (MIC).
Additional MIC testing was performed for several peptides against the ESKAPE pathogens Escherichia coli, Enterobacter cloacae, Klebsiella pneumoniae, and Acinetobacter baumannii, in CAA supplemented with human serum (Table D).

[5] = tested on: Mycobacterium tuberculosis strains
Protocol: MIC values for various Chp peptides were determined using the CLSI method for broth microdilution in 96-well microtiter format.
Next, MIC values for various Chp peptides were determined using the CLSI method above for broth microdilution in 96-well microtiter format for two different Mycobacterium tuberculosis strains. The MIC was determined as explained above for the NTM strains.

M. avium = experiment: 45 hr MIC against M. avium (NTM); type: cell-based, Mycobacterium avium; conditions: M. avium Chester ATCC 700898
Enterobacter cloacae = experiment: microbe, parasite or virus in culture; type: cell-based
Method in brief: (§2)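 Read-out is the minimal inhibitory concentration of each peptide, measured in serum-supplemented CAA.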

Escherichia coli = experiment: microbe, parasite or virus in culture; type: cell-based
Method in brief: as §2

[6] = tested on: M. kansasii Hauduroy ATCC 12478; experiment: 45 hr MIC against M. kansasii (NTM), Mueller Hinton broth; type: cell-based, Mycobacterium kansasii
Klebsiella pneumoniae [7] = experiment: microbe, parasite or virus in culture; type: cell-based; conditions: CAA without human serum
[8] = tested on: carbapenem-resistant bacterial strains; experiment: organism not typed; type: cell-based
Description: as §1

M. scrofulaceum = experiment: 45 hr MIC against M. scrofulaceum (NTM); type: cell-based, Mycobacterium scrofulaceum; conditions: M. scrofulaceum Prissick and Masson ATCC 19981
Pseudomonas aeruginosa = experiment: microbe, parasite or virus in culture; type: cell-based; conditions: for MIC: CAA without human serum
M. fortuitum = experiment: 45 hr MIC against M. fortuitum (NTM); type: cell-based, Mycobacterium fortuitum; conditions: M. fortuitum subsp. Fortuitum da Costa Cruz. ATCC 6841
[9] = tested on: carbapenem-resistant P. aeruginosa clinical isolate CFS-1292; experiment: MIC by modified CLSI broth microdilution against P. aeruginosa CFS-1292 (CAA, CAA + human serum); type: cell-based, Pseudomonas aeruginosa
[10] = tested on: P. aeruginosa strain CFS-1292; experiment: MIC in presence and absence of NaCl (140 mM); type: cell-based, Pseudomonas aeruginosa
Protocol: Certain Chp peptides were evaluated over a range of physiological NaCl levels and pH values, and were further evaluated for activity in the presence of various divalent cations.

M. smegmatis = experiment: 45 hr MIC against M. smegmatis (NTM), Mueller Hinton broth; type: cell-based, Mycobacterium smegmatis
M. intracellulare = experiment: 45 hr MIC against M. intracellulare (NTM); type: cell-based, Mycobacterium intracellulare; conditions: M. intracellulare (Cuttino and McCabe) Runyon ATCC 13950
Acinetobacter baumannii = experiment: microbe, parasite or virus in culture; type: cell-based
S. maltophilia = experiment: MIC against S. maltophilia isolates; type: cell-based, Stenotrophomonas maltophilia; conditions: S. maltophilia isolates (n per peptide in table)
Method in brief: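 Chp peptides were tested on a set of S. maltophilia isolates (n = isolates per species), with minimal inhibitory concentrations given in μg/mL.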

[11] = log10 CFU/mL reduction as compared to buffer
[12] = K. pneumoniae isolates (n per peptide in table)
[13] = E. cloacae isolates (n per peptide in table)
[14] = E. coli isolates (n per peptide in table)
[15] = P. aeruginosa isolates (n per peptide in table)
[16] = A. baumannii isolates (n per peptide in table)

Lysozyme
MIC Log10 (CFU/mL) Run #1 ([1]; 1 hour at 37° C., Run #1, limit of detection 1.6-log10 CFU/mL): 3.5 Log10 (CFU/mL) | MIC Log10 (CFU/mL) Run #2 ([1]; 1 hour at 37° C., Run #2, limit of detection 1.6-log10 CFU/mL): 5.2 Log10 (CFU/mL) | MIC Log10 (CFU/mL) Run #3 ([1]; 1 hour at 37° C., Run #3, limit of detection 1.6-log10 CFU/mL): 5.0 Log10 (CFU/mL) | MIC Log10 (CFU/mL) Average ([1]; average of 3 runs): 4.6 Log10 (CFU/mL) | Delta Log [1, 11]: 0.3 | Viable persister count after treatment (log10 CFU/mL) ([2]; Run #1, limit of detection 2-log10 CFU/mL): 4.7 Log10 (CFU/mL) | Viable persister count after treatment (log10 CFU/mL) ([2]; Run #2, limit of detection 2-log10 CFU/mL): 4.4 Log10 (CFU/mL) | Viable persister count after treatment (log10 CFU/mL) ([2]; Run #3, limit of detection 2-log10 CFU/mL): 4.2 Log10 (CFU/mL) | Viable persister count after treatment (log10 CFU/mL) ([2]; average of 3 runs): 4.4 Log10 (CFU/mL) | Delta Log [2, 11]: 0.0

MARSRRRMSKRSSRRSFRKYAKSHKKNFKARSMRGGIRL [Ecp2]
MIC (100% CAA) [3]: 0.25 | MIC50 (Klebsiella pneumoniae [4]; [12]): 0.5 µg/mL | MIC100 (Klebsiella pneumoniae [4]; [12]): 1 µg/mL | MIC Range (Klebsiella pneumoniae [4]; [12]): 0.5 to 1 µg/mL | MIC (Klebsiella pneumoniae [4]; Klebsiella pneumoniae HM-44, CAA supplemented with human serum): 0.25 µg/mL | MIC ([5]; Mycobacterium tuberculosis (Zopf) Lehmann and Neumann ATCC 25177): 32 µg/mL | MIC ([5]; Mycobacterium tuberculosis (Zopf) Lehmann and Neumann ATCC 35817): 8 µg/mL | 45 hr MIC (M. avium): 2 µg/mL | MIC50 (Enterobacter cloacae; [13]): 0.25 µg/mL | MIC100 (Enterobacter cloacae; [13]): 0.5 µg/mL | MIC Range (Enterobacter cloacae; [13]): 0.125 to 2 µg/mL | MIC (Enterobacter cloacae; Enterobacter cloacae (ATCC 13047, MIC control strain), RSC 1240, CAA without human serum): 4 µg/mL | MIC (Enterobacter cloacae; Enterobacter cloacae ATCC 13047, CAA supplemented with human serum): 16 µg/mL | MIC (Escherichia coli; E. coli (ATCC 25922, MIC control strain), RSC 813, CAA without human serum): 2 µg/mL | MIC (Escherichia coli; E. coli (HM346, colon, Crohn's disease), RSC 1212, CAA without human serum): 4 µg/mL | MIC50 (Escherichia coli; [14]): 0.5 µg/mL | MIC100 (Escherichia coli; [14]): 1 µg/mL | MIC Range (Escherichia coli; [14]): 0.24 to 4 µg/mL | MIC (Escherichia coli; Escherichia coli ATCC 25922, CAA supplemented with human serum): 0.5 µg/mL | 45 hr MIC [6]: 2 µg/mL | MIC (Klebsiella pneumoniae [7]; Klebsiella pneumoniae (ATCC 10031, MIC control strain), RSC 814): 4 µg/mL | MIC (Klebsiella pneumoniae [7]; Klebsiella pneumoniae (g2-3 HM35K), RSC 1138): 2 µg/mL | MIC (Klebsiella pneumoniae [7]; Klebsiella sp. (HM-44; colon, Crohn's disease), RSC 1139): 4 µg/mL | MIC (Klebsiella pneumoniae [7]; Klebsiella spp. (HM-223; gut of Crohn's disease patient), RSC 1131): 2 µg/mL | MIC ([8]; carbapenem-resistant isolate PA19): 0.5 µg/mL | MIC ([8]; carbapenem-resistant isolate PA20): 8 µg/mL | MIC ([8]; carbapenem-resistant isolate PA21): 8 µg/mL | MIC ([8]; carbapenem-resistant isolate PA22): 4 µg/mL | MIC ([8]; carbapenem-resistant isolate PA23): 2 µg/mL | MIC ([8]; carbapenem-resistant isolate PA24): 2 µg/mL | MIC ([8]; carbapenem-resistant isolate WLC-452): 1 µg/mL | 45 hr MIC (M. scrofulaceum): 4 µg/mL | MIC (Pseudomonas aeruginosa; P. aeruginosa 453 (Human clinical isolate, HSS), RSC 1292): 8 µg/mL | MIC (Pseudomonas aeruginosa; P. aeruginosa (ATCC 14213, human hip wound), RSC 1111): 4 µg/mL | MIC (Pseudomonas aeruginosa; P. aeruginosa (ATCC 15152, abscess in middle ear), RSC 1110): 1 µg/mL | MIC (Pseudomonas aeruginosa; P. aeruginosa (ATCC 15692, infected wound), RSC 489): 2 µg/mL | MIC (Pseudomonas aeruginosa; P. aeruginosa (ATCC 15692, infected wound), RSC 1115): 8 µg/mL | MIC (Pseudomonas aeruginosa; P. aeruginosa (ATCC 17646, human liver abscess), RSC 1109): 4 µg/mL | MIC (Pseudomonas aeruginosa; P. aeruginosa (ATCC 19142, tracheobronchial secretion), RSC 1108): 4 µg/mL | MIC (Pseudomonas aeruginosa; P. aeruginosa (ATCC 25102, bacteriophage host), RSC 1114): 2 µg/mL | MIC (Pseudomonas aeruginosa; P. aeruginosa (ATCC 27853, MIC control strain), RSC 815): 2 µg/mL | MIC (Pseudomonas aeruginosa; P. aeruginosa (ATCC BAA-27, lab strain), RSC 1113): 2 µg/mL | MIC (Pseudomonas aeruginosa; P. aeruginosa (PAO1, alternate source, HER1018), RSC 490): 2 µg/mL | MIC50 (Pseudomonas aeruginosa; [15]): 2 µg/mL | MIC100 (Pseudomonas aeruginosa; [15]): 8 µg/mL | MIC Range (Pseudomonas aeruginosa; [15]): 0.5 to 8 µg/mL | 45 hr MIC (M. fortuitum): 4 µg/mL | MIC (μg/mL) against CFS-1292 in 100% CAA (1st run/2nd run) ([9]; 100% CAA, 1st run or single value): 0.25 µg/mL | MIC (μg/mL) against CFS-1292 in CAA + […] human serum ([9]; CAA + […] human serum): 0.25 µg/mL | Fold change in MIC ([10]; CAA + 140 mM NaCl versus CAA without added NaCl): 8 | MIC, CAA + 140 mM NaCl ([10]; CAA + 140 mM NaCl, P. aeruginosa CFS-1292): 2 µg/mL | MIC, CAA (no added NaCl) ([10]; CAA, no added NaCl, P. aeruginosa CFS-1292): 0.25 µg/mL | 45 hr MIC (M. smegmatis; M. smegmatis MC^2 155, Run #1): 4 µg/mL | 45 hr MIC (M. smegmatis; M. smegmatis MC^2 155, Run #2): 8 µg/mL | 45 hr MIC (M. intracellulare): 8 µg/mL | MIC50 (Acinetobacter baumannii; [16]): 0.25 µg/mL | MIC100 (Acinetobacter baumannii; [16]): 0.5 µg/mL | MIC Range (Acinetobacter baumannii; [16]): 0.125 to 0.5 µg/mL | MIC (Acinetobacter baumannii; Acinetobacter baumannii (clinical isolate HSS), RSC 30, CAA without human serum): 2 µg/mL | MIC (Acinetobacter baumannii; Acinetobacter baumannii (clinical isolate HSS), RSC 32, CAA without human serum): 2 µg/mL | MIC (Acinetobacter baumannii; Acinetobacter baumannii ATCC BAA 747, CAA supplemented with human serum): 1 µg/mL | MIC50 (S. maltophilia): 8 µg/mL | MIC100 (S. maltophilia): >8 µg/mL
